Measurements published in patent publication US20260053834A1, “COVALENT MODIFIERS OF AKT1 AND USES THEREOF” (Terremoto Biosciences, Inc., priority 2023, published 2026).

Assays:
AKT2 = biological target: T1, AKT2 (Homo sapiens, UniProt P31751); test: Live cell target engagement by NanoBRET competitive probe displacement, AKT2; assay type: binding; details: transfected HEK293 cells, 2 h at 37° C., read-out: AKT2 IC50: GeoMean IC50
T1 construct: expressed in transfected cells; host or cells: HEK293
Protocol: (§1) Determining live cell AKT1 E17K, AKT1 WT, and AKT2 target engagement by NanoBRET competitive probe displacement. Live cell target engagement assays were performed as described (Vasta, J. D. et al. Cell Chem Biol 2018, 25(11), 206-214). Briefly, HEK293 cells were transfected with plasmids encoding kinase-NanoLuciferase fusion proteins overnight. Cells were then treated with serial dilutions of compound and an ˜EC50 concentration of fluorescently-tagged ATP-competitive tracer (Promega). After incubation for 2 h at 37° C., luciferase substrate and extracellular luciferase inhibitor were added to all wells, and luminescent intensity at 460 nm and 600 nm were measured on a multimode plate-reader. The ratio of E600/E460 was calculated to give the tracer engagement signal (BRET). IC50 values were calculated by fitting BRET values to a log(inhibitor) vs. response Hill equation.

AKT1 WT = biological target: T2, AKT1 WT (Homo sapiens, UniProt P31749); test: Live cell target engagement by NanoBRET competitive probe displacement, AKT1 WT; assay type: binding; details: transfected HEK293 cells, 2 h at 37° C., read-out: AKT1 WT IC50: GeoMean IC50
T2 construct: expressed in transfected cells; host or cells: HEK293
Protocol: as §1

AKT1 E17K = biological target: T3, AKT1 E17K (Homo sapiens, UniProt P31749, E17K); test: Live cell target engagement by NanoBRET competitive probe displacement, AKT1 E17K; assay type: binding; details: transfected HEK293 cells, 2 h at 37° C., read-out: AKT1 E17K IC50: GeoMean IC50
T3 construct: expressed in transfected cells; host or cells: HEK293
Protocol: as §1

[1] = test system: LAPC4 prostate cancer cells, which express the AKT1 E17K allele; test: Antiproliferative effects in LAPC4 cells (CellTiter Glo, 72 h); assay type: cell-based; details: Homo sapiens, LAPC4, 72 h, read-out: LAPC4 proliferation IC50: GeoMean IC50
Protocol: Antiproliferative effects in LAPC4 cells. LAPC4 prostate cancer cells (Klein, K. A. et al. Nat Med 1997, 3, 402-408), which express the AKT1 E17K allele, were grown in IMDM media (Hyclone) supplemented with 12% FBS+1% P/S. To assess compound effects on growth, 1,000 cells/well were seeded in 384 well assay plates, incubated with compound dilutions dissolved in DMSO. After 72 h, intracellular ATP content was assessed with CellTiter Glo reagent (Promega) according to the manufacturer's instructions. IC50 values were calculated by fitting luminescence values to a log(inhibitor) vs. response Hill equation.

T2 sequence (P31749 whole entry): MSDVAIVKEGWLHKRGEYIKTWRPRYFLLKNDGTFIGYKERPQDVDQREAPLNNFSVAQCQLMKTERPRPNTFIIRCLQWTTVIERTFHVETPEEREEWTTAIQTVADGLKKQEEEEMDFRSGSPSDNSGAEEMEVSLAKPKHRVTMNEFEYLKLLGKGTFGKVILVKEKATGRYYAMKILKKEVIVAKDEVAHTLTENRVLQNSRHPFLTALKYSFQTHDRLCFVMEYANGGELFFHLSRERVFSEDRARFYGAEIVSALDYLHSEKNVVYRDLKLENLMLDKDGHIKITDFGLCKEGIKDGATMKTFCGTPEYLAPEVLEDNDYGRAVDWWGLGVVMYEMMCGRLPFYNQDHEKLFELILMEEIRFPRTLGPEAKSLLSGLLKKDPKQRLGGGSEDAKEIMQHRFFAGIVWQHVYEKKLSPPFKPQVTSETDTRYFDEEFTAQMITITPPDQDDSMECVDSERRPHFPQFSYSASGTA
T3 sequence (P31749 whole entry E17K): as the sequence (P31749 whole entry) above, with E17K counted along it
T1 sequence (P31751 whole entry): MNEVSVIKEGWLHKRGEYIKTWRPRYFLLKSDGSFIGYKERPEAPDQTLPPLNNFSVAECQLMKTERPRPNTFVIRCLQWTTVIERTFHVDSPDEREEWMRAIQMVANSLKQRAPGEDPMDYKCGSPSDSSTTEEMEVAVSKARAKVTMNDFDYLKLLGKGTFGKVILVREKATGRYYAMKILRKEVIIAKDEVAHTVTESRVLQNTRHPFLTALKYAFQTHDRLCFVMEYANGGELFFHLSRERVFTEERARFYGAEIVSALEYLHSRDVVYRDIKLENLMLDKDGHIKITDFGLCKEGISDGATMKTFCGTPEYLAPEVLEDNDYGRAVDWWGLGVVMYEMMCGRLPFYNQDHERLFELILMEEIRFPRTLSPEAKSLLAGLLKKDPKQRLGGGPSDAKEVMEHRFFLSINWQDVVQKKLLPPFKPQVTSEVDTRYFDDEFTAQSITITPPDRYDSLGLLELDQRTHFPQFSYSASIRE

Compound | IC50 (AKT2) | IC50 (AKT1 WT) | IC50 (AKT1 E17K) | IC50 [1]
Nc1ncccc1-c1nc2ccc(-c3ccccc3)nc2n1-c1ccc2c(c1)CC[C@@H]2NC(=O)c1cc(F)c(O)c(C=O)c1 [Example 8, N-[(1S)-5-[2-(2-aminopyridin-3-yl)-5-phenylimidazo[4,5-b]pyridin-3-yl]-2,3-dihydro-1H-inden-1-yl]-3-fluoro-5-formyl-4-hydroxybenzamide] | 100 to 2000 nM | 10 to 100 nM | 10 to 100 nM | 10 to 100 nM
Nc1ncccc1-c1nc2ccc(-c3ccccc3)nc2n1-c1ccc2c(c1)CCC2C(=O)NCc1ccc(C=O)c(O)c1 (stereo not shown) [Example 10, 5-(2-(2-aminopyridin-3-yl)-5-phenyl-3H-imidazo[4,5-b]pyridin-3-yl)-N-(4-formyl-3-hydroxybenzyl)-2,3-dihydro-1H-indene-1-carboxamide] | 100 to 2000 nM | 10 to 100 nM | < 10 nM | 10 to 100 nM
Nc1ncccc1-c1nc2ccc(-c3ccccc3)nc2n1-c1ccc2c(c1)CC[C@@H]2NC(=O)c1cc(Cl)c(O)c(C=O)c1 [Example 11, N-[(1S)-5-[2-(2-aminopyridin-3-yl)-5-phenylimidazo[4,5-b]pyridin-3-yl]-2,3-dihydro-1H-inden-1-yl]-3-chloro-5-formyl-4-hydroxybenzamide] | 100 to 2000 nM | 10 to 100 nM | 10 to 100 nM | 100 to 2000 nM
Nc1ncccc1-c1nc2ccc(-c3ccccc3)nc2n1-c1ccc2c(c1)CC[C@@H]2NC(=O)C1(c2cnc(C=O)c(O)c2)CC1 [Example 12, N-[(1S)-5-[2-(2-aminopyridin-3-yl)-5-phenylimidazo[4,5-b]pyridin-3-yl]-2,3-dihydro-1H-inden-1-yl]-1-(6-formyl-5-hydroxypyridin-3-yl)cyclopropane-1-carboxamide] | 100 to 2000 nM | 100 to 2000 nM | 100 to 2000 nM | ≥ 2000 nM
Cc1ccc2nc(-c3cccnc3N)n(-c3ccc4c(c3)CC[C@@H]4NC(=O)c3ccc(O)c(C=O)c3)c2n1 [Example 13, N-[(1S)-5-[2-(2-aminopyridin-3-yl)-5-methylimidazo[4,5-b]pyridin-3-yl]-2,3-dihydro-1H-inden-1-yl]-3-formyl-4-hydroxybenzamide] | ≥ 2000 nM | 100 to 2000 nM | 10 to 100 nM | 100 to 2000 nM
CC(=O)Nc1ccc(C(=O)N[C@H]2CCc3cc(-n4c(-c5cccnc5N)nc5ccc(-c6ccccc6)nc54)ccc32)cc1C=O [Example 14, N-[(1S)-5-[2-(2-aminopyridin-3-yl)-5-phenylimidazo[4,5-b]pyridin-3-yl]-2,3-dihydro-1H-inden-1-yl]-4-acetamido-3-formylbenzamide] | 10 to 100 nM | < 10 nM | < 10 nM | < 10 nM
Nc1ncccc1-c1nc2cccnc2n1-c1ccc2c(c1)CC[C@@H]2NC(=O)c1ccc(O)c(C=O)c1 [Example 15, N-[(1S)-5-[2-(2-aminopyridin-3-yl)imidazo[4,5-b]pyridin-3-yl]-2,3-dihydro-1H-inden-1-yl]-3-formyl-4-hydroxybenzamide] | ≥ 2000 nM | 100 to 2000 nM | 10 to 100 nM | 100 to 2000 nM
Nc1ncccc1-c1nc2ccc(-c3ccccc3)nc2n1-c1ccc2c(c1)CC[C@@H]2NC(=O)c1cc(C=O)c(O)cc1F [Example 16, N-[(1S)-5-[2-(2-aminopyridin-3-yl)-5-phenylimidazo[4,5-b]pyridin-3-yl]-2,3-dihydro-1H-inden-1-yl]-2-fluoro-5-formyl-4-hydroxybenzamide] | 10 to 100 nM | 10 to 100 nM | 10 to 100 nM | 100 to 2000 nM
COc1cc(O)c(C=O)cc1C(=O)N[C@H]1CCc2cc(-n3c(-c4cccnc4N)nc4ccc(-c5ccccc5)nc43)ccc21 [Example 17, N-[(1S)-5-[2-(2-aminopyridin-3-yl)-5-phenylimidazo[4,5-b]pyridin-3-yl]-2,3-dihydro-1H-inden-1-yl]-5-formyl-4-hydroxy-2-methoxybenzamide] | 100 to 2000 nM | 100 to 2000 nM | 100 to 2000 nM | 100 to 2000 nM
Nc1ncccc1-c1nc2ccc(-c3cccnn3)nc2n1-c1ccc2c(c1)CC[C@@H]2NC(=O)c1ccc(O)c(C=O)c1 [Example 18, N-[(1S)-5-[2-(2-aminopyridin-3-yl)-5-(pyridazin-3-yl)imidazo[4,5-b]pyridin-3-yl]-2,3-dihydro-1H-inden-1-yl]-3-formyl-4-hydroxybenzamide] | 100 to 2000 nM | 10 to 100 nM | 10 to 100 nM | 100 to 2000 nM
CN1CCN(c2cccc(-c3ccc4nc(-c5cccnc5N)n(-c5ccc6c(c5)CC[C@@H]6NC(=O)c5ccc(O)c(C=O)c5)c4n3)c2)CC1 [Example 19, (S)—N-(5-(2-(2-aminopyridin-3-yl)-5-(3-(4-methylpiperazin-1-yl)phenyl)-3H-imidazo[4,5-b]pyridin-3-yl)-2,3-dihydro-1H-inden-1-yl)-3-formyl-4-hydroxybenzamide] | < 10 nM | < 10 nM | < 10 nM | 10 to 100 nM
Nc1ncccc1-c1nc2ccc(-c3ccc(F)cc3)nc2n1-c1ccc2c(c1)CC[C@@H]2NC(=O)c1ccc(O)c(C=O)c1 [Example 20, (S)—N-(5-(2-(2-aminopyridin-3-yl)-5-(4-fluorophenyl)-3H-imidazo[4,5-b]pyridin-3-yl)-2,3-dihydro-1H-inden-1-yl)-3-formyl-4-hydroxybenzamide] | 100 to 2000 nM | 10 to 100 nM | 10 to 100 nM | 10 to 100 nM
Nc1ncccc1-c1nc2ccc(-c3ccccc3F)nc2n1-c1ccc2c(c1)CC[C@@H]2NC(=O)c1ccc(O)c(C=O)c1 [Example 21, N-[(1S)-5-[2-(2-aminopyridin-3-yl)-5-(2-fluorophenyl)imidazo[4,5-b]pyridin-3-yl]-2,3-dihydro-1H-inden-1-yl]-3-formyl-4-hydroxybenzamide] | 10 to 100 nM | 10 to 100 nM | 10 to 100 nM | 10 to 100 nM
Nc1ncccc1-c1nc2ccc(-c3ccccc3)nc2n1-c1ccc2c(c1)CC[C@@H]2NC(=O)c1cc(C=O)c(O)c(F)c1F [Example 22, N-[(1S)-5-[2-(2-aminopyridin-3-yl)-5-phenylimidazo[4,5-b]pyridin-3-yl]-2,3-dihydro-1H-inden-1-yl]-2,3-difluoro-5-formyl-4-hydroxybenzamide] | 10 to 100 nM | 10 to 100 nM | 10 to 100 nM | 10 to 100 nM
Nc1ncccc1-c1nc2ccc(-c3cccnc3)nc2n1-c1ccc2c(c1)CC[C@@H]2NC(=O)c1ccc(O)c(C=O)c1 [Example 23, N-[(1S)-5-[2-(2-aminopyridin-3-yl)-5-(pyridin-3-yl)imidazo[4,5-b]pyridin-3-yl]-2,3-dihydro-1H-inden-1-yl]-3-formyl-4-hydroxybenzamide] | 100 to 2000 nM | 10 to 100 nM | 10 to 100 nM | 10 to 100 nM
Nc1ncccc1-c1nc2ccc(-c3ccncc3)nc2n1-c1ccc2c(c1)CC[C@@H]2NC(=O)c1ccc(O)c(C=O)c1 [Example 24, N-[(1S)-5-[2-(2-aminopyridin-3-yl)-5-(pyridin-4-yl)imidazo[4,5-b]pyridin-3-yl]-2,3-dihydro-1H-inden-1-yl]-3-formyl-4-hydroxybenzamide] | 100 to 2000 nM | 10 to 100 nM | 10 to 100 nM | 10 to 100 nM
Nc1ncccc1-c1nc2ccc(-c3ccccn3)nc2n1-c1ccc2c(c1)CC[C@@H]2NC(=O)c1ccc(O)c(C=O)c1 [Example 25, (S)—N-(5-(2-(2-aminopyridin-3-yl)-5-(pyridin-2-yl)-3H-imidazo[4,5-b]pyridin-3-yl)-2,3-dihydro-1H-inden-1-yl)-3-formyl-4-hydroxybenzamide] | 100 to 2000 nM | 10 to 100 nM | 10 to 100 nM | 10 to 100 nM
Nc1ncccc1-c1nc2ccc(-c3cccc(F)c3)nc2n1-c1ccc2c(c1)CC[C@@H]2NC(=O)c1ccc(O)c(C=O)c1 [Example 26, N-[(1S)-5-[2-(2-aminopyridin-3-yl)-5-(3-fluorophenyl)imidazo[4,5-b]pyridin-3-yl]-2,3-dihydro-1H-inden-1-yl]-3-formyl-4-hydroxybenzamide] | 100 to 2000 nM | 100 to 2000 nM | 10 to 100 nM | 100 to 2000 nM
Nc1ncccc1-c1nc2ccc(-c3ccccc3)nc2n1-c1ccc2c(c1)CCC2C(=O)Nc1ccc(O)c(C=O)c1 (stereo not shown) [Example 27, 5-[2-(2-aminopyridin-3-yl)-5-phenylimidazo[4,5-b]pyridin-3-yl]-N-(3-formyl-4-hydroxyphenyl)-2,3-dihydro-1H-indene-1-carboxamide] | 100 to 2000 nM | 100 to 2000 nM | 10 to 100 nM | 100 to 2000 nM
